Measurements: US11046696B2, “Fused pyrimidine compound or salt thereof” (TAIHO PHARMACEUTICAL CO., LTD., priority 2016, dated 2021)

Assay: Evaluation of stability in liver microsome
Details: mouse liver microsome, 1 μM, 37° C. for 30 minutes

Row | Remaining (%) | Compound
1 | 63 | COCc1ccc(NC(=O)c2c(C#CC3CCOCC3)n(C3(C)CC3)c3ncnc(N)c23)cc1 [Example 87, 4-amino-N-[4-(methoxymethyl)phenyl]-7-(1-methylcyclopropyl)-6-((tetrahydro-2H-pyran-4-yl)ethynyl)-7H-pyrrolo[2,3-d]pyrimidine-5-carboxamide]
2 | 60 | COCc1ccc(NC(=O)c2c(C#CCC3(O)CCC3)n(C3(C)CC3)c3ncnc(N)c23)cc1 [Example 103, 4-amino-6-(3-(1-hydroxycyclobutyl)prop-1-yn-1-yl)-N-(4-(methoxymethyl)phenyl)-7-(1-methylcyclopropyl)-7H-pyrrolo[2,3-d]pyrimidine-5-carboxamide]
3 | 54 | COCc1ccc(NC(=O)c2cn(C(C)(C)C)c3ncnc(N)c23)cc1F [Example 30, 4-amino-7-(tert-butyl)-N-(3-fluoro-4-(methoxymethyl)phenyl)-7H-pyrrolo[2,3-d]pyrimidine-5-carboxamide]
4 | 80 | COCc1ccc(NC(=O)c2c(C#CCC3CCCCC3)n(C3(C)CC3)c3ncnc(N)c23)cc1 [Example 199, 4-amino-6-(3-cyclohexylprop-1-yn-1-yl)-N-(4-(methoxymethyl)phenyl)-7-(1-methylcyclopropyl)-7H-pyrrolo[2,3-d]pyrimidine-5-carboxamide]
5 | 68 | COCc1ccc(NC(=O)c2c(C#CCC3(O)CCOCC3)n(C3(C)CC3)c3ncnc(N)c23)cc1 [Example 143, 4-amino-6-(3-(4-hydroxytetrahydro-2H-pyran-4-yl)prop-1-yn-1-yl)-N-(4-(methoxymethyl)phenyl)-7-(1-methylcyclopropyl)-7H-pyrrolo[2,3-d]pyrimidine-5-carboxamide]
6 | 55 | COCc1ccc(NC(=O)c2c(C#CC3(O)CCCC3)n(C3(C)CC3)c3ncnc(N)c23)cc1 [Example 131, 4-amino-6-((1-hydroxycyclopentyl)ethynyl)-N-(4-(methoxymethyl)phenyl)-7-(1-methylcyclopropyl)-7H-pyrrolo[2,3-d]pyrimidine-5-carboxamide]
7 | 66 | COCc1ccc(NC(=O)c2c(C#CCC(C)(C)O)n(C3(C)CC3)c3ncnc(N)c23)cc1 [Example 86, 4-amino-6-(4-hydroxy-4-methylpent-1-yn-1-yl)-N-[4-(methoxymethyl)phenyl]-7-(1-methylcyclopropyl)-7H-pyrrolo[2,3-d]pyrimidine-5-carboxamide]
8 | 67 | COCc1ccc(NC(=O)c2c(OCC3CCCO3)n(C3(C)CC3)c3ncnc(N)c23)cc1 (centres unmarked) [Example 135, 4-amino-N-(4-(methoxymethyl)phenyl)-7-(1-methylcyclopropyl)-6-((tetrahydrofuran-2-yl)methoxy)-7H-pyrrolo[2,3-d]pyrimidine-5-carboxamide]
9 | 72 | COCc1ccc(NC(=O)c2c(C#Cc3ccc(Cl)nc3)n(C3(C)CC3)c3ncnc(N)c23)cc1 [Example 120, 4-amino-6-((6-chloropyridin-3-yl)ethynyl)-N-(4-(methoxymethyl)phenyl)-7-(1-methylcyclopropyl)-7H-pyrrolo[2,3-d]pyrimidine-5-carboxamide]
10 | 79 | COCc1ccc(NC(=O)c2c(C#Cc3ccccc3OC)n(C3(C)CC3)c3ncnc(N)c23)cc1 [Example 113, 4-amino-N-(4-(methoxymethyl)phenyl)-6-((2-methoxyphenyl)ethynyl)-7-(1-methylcyclopropyl)-7H-pyrrolo[2,3-d]pyrimidine-5-carboxamide]
11 | 78 | COCc1ccc(NC(=O)c2c(-c3cnn(C)c3)n(C3(C)CC3)c3ncnc(N)c23)cc1 [Example 150, 4-amino-N-(4-(methoxymethyl)phenyl)-6-(1-methyl-1H-pyrazol-4-yl)-7-(1-methylcyclopropyl)-7H-pyrrolo[2,3-d]pyrimidine-5-carboxamide]
12 | 72 | COCc1ccc(NC(=O)c2c(C#CC(C)(C)O)n(C3(C)CC3)c3ncnc(N)c23)cc1 [Example 174, 4-amino-6-(3-hydroxy-3-methylbut-1-yn-1-yl)-N-(4-(methoxymethyl)phenyl)-7-(1-methylcyclopropyl)-7H-pyrrolo[2,3-d]pyrimidine-5-carboxamide]
13 | 74 | COCc1ccc(NC(=O)c2c(C#CCC3(O)COC3)n(C3(C)CC3)c3ncnc(N)c23)cc1 [Example 125, 4-amino-6-(3-(3-hydroxyoxetan-3-yl)prop-1-yn-1-yl)-N-(4-(methoxymethyl)phenyl)-7-(1-methylcyclopropyl)-7H-pyrrolo[2,3-d]pyrimidine-5-carboxamide]
14 | 58 | COCc1ccc(NC(=O)c2c(C#Cc3c(C)noc3C)n(C3(C)CC3)c3ncnc(N)c23)cc1 [Example 184, 4-amino-6-((3,5-dimethylisoxazol-4-yl)ethynyl)-N-(4-(methoxymethyl)phenyl)-7-(1-methylcyclopropyl)-7H-pyrrolo[2,3-d]pyrimidine-5-carboxamide]
15 | 54 | COCc1ccc(NC(=O)c2c(C#Cc3ccn[nH]3)n(C3(C)CC3)c3ncnc(N)c23)cc1 [Example 129, 6-((1H-pyrazol-5-yl)ethynyl)-4-amino-N-(4-(methoxymethyl)phenyl)-7-(1-methylcyclopropyl)-7H-pyrrolo[2,3-d]pyrimidine-5-carboxamide]
16 | 79 | COCc1ccc(NC(=O)c2c(C#Cc3ccc(OC)nc3)n(C3(C)CC3)c3ncnc(N)c23)cc1 [Example 192, 4-amino-N-(4-(methoxymethyl)phenyl)-6-((6-methoxypyridin-3-yl)ethynyl)-7-(1-methylcyclopropyl)-7H-pyrrolo[2,3-d]pyrimidine-5-carboxamide]
17 | 78 | COCc1ccc(NC(=O)c2c(C#Cc3cnc4ccoc4c3)n(C3(C)CC3)c3ncnc(N)c23)cc1 [Example 159, 4-amino-6-(furo[3,2-b]pyridin-6-ylethynyl)-N-(4-(methoxymethyl)phenyl)-7-(1-methylcyclopropyl)-7H-pyrrolo[2,3-d]pyrimidine-5-carboxamide]
18 | 67 | COCc1ccc(NC(=O)c2c(C#Cc3ccn(C)n3)n(C3(C)CC3)c3ncnc(N)c23)cc1 [Example 92, 4-amino-N-(4-(methoxymethyl)phenyl)-6-((1-methyl-1H-pyrazol-3-yl)ethynyl)-7-(1-methylcyclopropyl)-7H-pyrrolo[2,3-d]pyrimidine-5-carboxamide]
19 | 77 | COCc1ccc(NC(=O)c2c(-c3ccc(N4CCN(C)CC4)cc3)n(C3(C)CC3)c3ncnc(N)c23)cc1 [Example 171, 4-amino-N-(4-(methoxymethyl)phenyl)-7-(1-methylcyclopropyl)-6-(4-(4-methylpiperazin-1-yl)phenyl)-7H-pyrrolo[2,3-d]pyrimidine-5-carboxamide]
20 | 66 | COCc1ccc(NC(=O)c2cn(C3(CF)CC3)c3ncnc(N)c23)cc1 [Example 45, 4-amino-7-(1-(fluoromethyl)cyclopropyl)-N-(4-(methoxymethyl)phenyl)-7H-pyrrolo[2,3-d]pyrimidine-5-carboxamide]
21 | 62 | COCc1ccc(NC(=O)c2c(C#Cc3cn(C)nc3C)n(C3(C)CC3)c3ncnc(N)c23)cc1 [Example 181, 4-amino-6-((1,3-dimethyl-1H-pyrazol-4-yl)ethynyl)-N-(4-(methoxymethyl)phenyl)-7-(1-methylcyclopropyl)-7H-pyrrolo[2,3-d]pyrimidine-5-carboxamide]
22 | 79 | COCc1ccc(NC(=O)c2c(C#CC(C)(C)N)n(C3(C)CC3)c3ncnc(N)c23)cc1 [Example 134, 4-amino-6-(3-amino-3-methylbut-1-yn-1-yl)-N-(4-(methoxymethyl)phenyl)-7-(1-methylcyclopropyl)-7H-pyrrolo[2,3-d]pyrimidine-5-carboxamide]
23 | 77 | COCc1ccc(NC(=O)c2c(C#CCN3CCOCC3)n(C3(C)CC3)c3ncnc(N)c23)cc1F [Example 206, 4-amino-N-(3-fluoro-4-(methoxymethyl)phenyl)-7-(1-methylcyclopropyl)-6-(3-morpholinoprop-1-yn-1-yl)-7H-pyrrolo[2,3-d]pyrimidine-5-carboxamide]
24 | 51 | COCc1ccc(NC(=O)c2c(C#Cc3cncs3)n(C3(C)CC3)c3ncnc(N)c23)cc1 [Example 193, 4-amino-N-[4-(methoxymethyl)phenyl]-7-(1-methylcyclopropyl)-6-(thiazol-5-ylethynyl)-7H-pyrrolo[2,3-d]pyrimidine-5-carboxamide]
25 | 58 | COCc1ccc(NC(=O)c2c(C#CC3CCOCC3)n(C3(C)CC3)c3ncnc(N)c23)cc1F [Example 205, 4-amino-N-(3-fluoro-4-(methoxymethyl)phenyl)-7-(1-methylcyclopropyl)-6-((tetrahydro-2H-pyran-4-yl)ethynyl)-7H-pyrrolo[2,3-d]pyrimidine-5-carboxamide]
26 | 69 | COCc1ccc(NC(=O)c2c(OC[C@H]3CCCO3)n(C3(C)CC3)c3ncnc(N)c23)cc1 [Example 89, (R)-4-amino-N-[4-(methoxymethyl)phenyl]-7-(1-methylcyclopropyl)-6-((tetrahydrofuran-2-yl)methoxy)-7H-pyrrolo[2,3-d]pyrimidine-5-carboxamide]
27 | 57 | COCc1ccc(NC(=O)c2c(C#CCC3CCOCC3)n(C3(C)CC3)c3ncnc(N)c23)cc1 [Example 152, 4-amino-N-(4-(methoxymethyl)phenyl)-7-(1-methylcyclopropyl)-6-(3-(tetrahydro-2H-pyran-4-yl)prop-1-yn-1-yl)-7H-pyrrolo[2,3-d]pyrimidine-5-carboxamide]
28 | 68 | COCc1ccc(NC(=O)c2c(C#Cc3ccc[nH]3)n(C3(C)CC3)c3ncnc(N)c23)cc1 [Example 161, 6-((1H-pyrrol-2-yl)ethynyl)-4-amino-N-(4-(methoxymethyl)phenyl)-7-(1-methylcyclopropyl)-7H-pyrrolo[2,3-d]pyrimidine-5-carboxamide]
29 | 55 | CCn1nccc1C#Cc1c(C(=O)Nc2ccc(COC)cc2)c2c(N)ncnc2n1C1(C)CC1 [Example 114, 4-amino-6-((1-ethyl-1H-pyrazol-5-yl)ethynyl)-N-(4-(methoxymethyl)phenyl)-7-(1-methylcyclopropyl)-7H-pyrrolo[2,3-d]pyrimidine-5-carboxamide]
